# Experimental data reported in patent US8673351B2, “Crystallization inhibitor and its use in gelatin capsules” (Ivax Pharmaceuticals S.R.O., priority 2005, dated 2014).
# Experiment: Titration of lipophilic capsule contents (placebo) with water until emulsification (robustness)
# Assay type: physicochemical
# Details: placebo capsule contents after the 5 w/w addition of the emulsion stabilizer; titrated with water at room temperature until clear oily liquid turns into milky turbid emulsion
# Description: The resistance of the contents of gelatin capsules to the water passing inside was quantified by performing a titration experiment. While stirring constantly using a magnetic stirrer at room temperature, the lipophilic contents intended for capsules was gradually titrated with water until the clear oily liquid begins to change into a milky turbid emulsion.
# The robustness of the contents was expressed in the following table as an amount of water, in % w/w, necessary to induce emulsification of the contents.
row,Compound,Robustness (amount of water necessary to induce emulsification of the contents)
1,Decaglyceryl decaoleate,0.85 weight %
2,CCCCCCCC/C=C\CCCCCCCC(=O)OCC(O)CO (stereo not drawn) [Glyceryl monooleate],4.98 weight %
3,CCCCC/C=C\C/C=C\CCCCCCCC(=O)OCC(O)CO (stereo not drawn) [Glyceryl monolinoleate],3.23 weight %
4,Diglyceryl monooleate,1.68 weight %
5,Decaglyceryl monooleate,1.02 weight %
6,Decaglyceryl monolaurate,0.84 weight %
